Experiments:
Assay type in all cases: binding
TEAD1 = TEAD1 (Homo sapiens, UniProt P28347); test: Lipid HTRF TEAD1
TEAD2 = TEAD2 (Homo sapiens, UniProt Q15562); test: Lipid HTRF TEAD2
TEAD3 = TEAD3 (Homo sapiens, UniProt Q99594); test: Lipid HTRF TEAD3
TEAD4 = TEAD4 (Homo sapiens, UniProt Q15561); test: Lipid HTRF TEAD4
Sequence of TEAD4 (Q15561 whole entry, species assumed): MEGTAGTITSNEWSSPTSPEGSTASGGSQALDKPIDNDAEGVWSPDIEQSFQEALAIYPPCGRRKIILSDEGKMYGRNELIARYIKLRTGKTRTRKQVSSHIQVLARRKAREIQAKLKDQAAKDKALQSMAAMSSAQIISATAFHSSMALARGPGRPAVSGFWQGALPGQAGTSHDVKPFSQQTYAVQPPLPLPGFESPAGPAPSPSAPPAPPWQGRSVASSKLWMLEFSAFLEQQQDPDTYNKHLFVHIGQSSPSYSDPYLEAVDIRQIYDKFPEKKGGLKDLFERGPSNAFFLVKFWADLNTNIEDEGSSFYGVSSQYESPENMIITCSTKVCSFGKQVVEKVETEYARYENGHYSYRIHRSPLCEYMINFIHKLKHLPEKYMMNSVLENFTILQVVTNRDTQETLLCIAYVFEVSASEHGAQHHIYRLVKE

Sequence of TEAD3 (Q99594 whole entry, species assumed): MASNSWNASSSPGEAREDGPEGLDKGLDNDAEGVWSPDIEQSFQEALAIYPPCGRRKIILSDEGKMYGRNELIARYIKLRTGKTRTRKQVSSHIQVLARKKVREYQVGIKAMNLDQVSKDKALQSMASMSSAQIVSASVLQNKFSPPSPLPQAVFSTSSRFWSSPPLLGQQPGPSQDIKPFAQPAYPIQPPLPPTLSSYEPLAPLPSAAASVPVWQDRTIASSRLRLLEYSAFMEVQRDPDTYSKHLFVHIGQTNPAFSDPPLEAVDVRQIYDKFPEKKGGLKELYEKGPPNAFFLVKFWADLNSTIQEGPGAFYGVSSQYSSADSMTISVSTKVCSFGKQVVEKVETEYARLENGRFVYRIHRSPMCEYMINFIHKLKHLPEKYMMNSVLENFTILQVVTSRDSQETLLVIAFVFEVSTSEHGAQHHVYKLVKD
Sequence of TEAD2 (Q15562 whole entry, species assumed): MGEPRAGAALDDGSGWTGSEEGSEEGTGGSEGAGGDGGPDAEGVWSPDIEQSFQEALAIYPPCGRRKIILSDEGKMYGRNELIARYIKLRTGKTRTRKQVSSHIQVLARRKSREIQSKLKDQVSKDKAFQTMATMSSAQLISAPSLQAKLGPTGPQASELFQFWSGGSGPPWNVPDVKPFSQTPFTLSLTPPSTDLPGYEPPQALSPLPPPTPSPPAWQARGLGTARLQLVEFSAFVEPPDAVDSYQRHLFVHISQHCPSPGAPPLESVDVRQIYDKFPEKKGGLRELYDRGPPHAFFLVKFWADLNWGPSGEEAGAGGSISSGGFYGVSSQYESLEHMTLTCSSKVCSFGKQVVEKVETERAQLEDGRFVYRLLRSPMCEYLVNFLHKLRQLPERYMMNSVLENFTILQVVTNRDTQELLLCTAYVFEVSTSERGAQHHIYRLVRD
Sequence of TEAD1 (P28347 whole entry, species assumed): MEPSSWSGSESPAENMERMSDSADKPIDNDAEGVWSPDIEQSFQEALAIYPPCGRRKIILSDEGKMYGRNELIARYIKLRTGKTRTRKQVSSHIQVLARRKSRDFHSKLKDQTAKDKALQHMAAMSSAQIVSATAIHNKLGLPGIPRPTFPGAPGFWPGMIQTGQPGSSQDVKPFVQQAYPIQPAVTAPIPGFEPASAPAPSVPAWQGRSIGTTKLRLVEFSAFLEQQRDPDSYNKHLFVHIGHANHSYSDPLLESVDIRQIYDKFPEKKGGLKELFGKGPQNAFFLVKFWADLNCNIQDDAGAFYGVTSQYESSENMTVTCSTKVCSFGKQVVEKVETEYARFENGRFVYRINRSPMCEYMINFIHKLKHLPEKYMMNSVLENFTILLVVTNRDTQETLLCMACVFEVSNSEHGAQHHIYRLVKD

| Structure (SMILES) | IC50 (TEAD1) | IC50 (TEAD2) | IC50 (TEAD3) | IC50 (TEAD4) |
| --- | --- | --- | --- | --- |
| CNC(=O)Cc1cccc(CNC(=O)c2cnc(OC)c(/C=C/[C@H]3CC[C@@H](C(F)(F)F)CC3)c2)c1 [Compound 56A, 6-Methoxy-N-(3-(2-(methylamino)-2-oxoethyl)benzyl)-5-((E)-2-(cis-4-(trifluoromethyl)cyclohexyl)vinyl)nicotinamide] | 708 nM | 79 nM | 15200 nM | 355 nM |
| CNC(=O)Cc1cccc(CNC(=O)c2cnc(OC)c(/C=C/C3CCC(F)(F)CC3)c2)c1 [Compound 54, (E)-5-(2-(4,4-difluorocyclohexyl)vinyl)-6-methoxy-N-(3-(2-(methylamino)-2-oxoethyl)benzyl)nicotinamide] | 318 nM | 146 nM | 4000 nM | 224 nM |
| CNC(=O)Cc1cccc(CNC(=O)c2cnc(OC)c(/C=C/[C@H]3CC[C@H](C(F)(F)F)CC3)c2)c1 [Compound 56B, 6-methoxy-N-(3-(2-(methylamino)-2-oxoethyl)benzyl)-5-((E)-2-(trans-4-(trifluoromethyl)cyclohexyl)vinyl) nicotinamide] | 193 nM | 31 nM | 2090 nM | 39 nM |
| CNC(=O)Cc1cccc(CNC(=O)c2cc(/C=C/[C@H]3CC[C@@H](C(F)(F)F)CC3)c(OC)cn2)c1 [Compound 57A, 5-Methoxy-N-(3-(2-(methylamino)-2-oxoethyl)benzyl)-4-((E)-2-(cis-4-(trifluoromethyl)cyclohexyl)vinyl) picolinamide] | 389 nM | 46 nM | 867 nM | 131 nM |
| CNC(=O)Cc1cccc(CNC(=O)c2cc(/C=C/C3CCC(F)(F)CC3)c(OC)cn2)c1 [Compound 55, (E)-4-(2-(4,4-Difluorocyclohexyl)vinyl)-5-methoxy-N-(3-(2-(methylamino)-2-oxoethyl)benzyl)picolinamide] | 198 nM | 89 nM | 230 nM | 73 nM |

The next molecules have a lower IC50 (TEAD1) than those just listed; values first:

| IC50 (TEAD1) | IC50 (TEAD2) | IC50 (TEAD3) | IC50 (TEAD4) | Structure (SMILES) |
| --- | --- | --- | --- | --- |
| 128 nM | 17 nM | 298 nM | 19 nM | CNC(=O)Cc1cccc(CNC(=O)c2cc(/C=C/[C@H]3CC[C@H](C(F)(F)F)CC3)c(OC)cn2)c1 [Compound 57B, 5-methoxy-N-(3-(2-(methylamino)-2-oxoethyl)benzyl)-4-((E)-2-(trans-4-(trifluoromethyl)cyclohexyl)vinyl) picolinamide] |
| 34 nM | 10 nM | 34 nM | 8 nM | C=CS(=O)(=O)Nc1cnc(OC)c(/C=C/C2CCC(F)(F)CC2)c1 [Compound 58, N-[5-[(E)-2-(4,4-difluorocyclohexyl)vinyl]-6-methoxy-3-pyridyl]ethenesulfonamide] |

From US20210188775A1, “CARBOXAMIDE AND SULFONAMIDE DERIVATIVES USEFUL AS TEAD MODULATORS” (Genentech, Inc., priority 2018, published 2021)
